The values below come from ChEMBL document CHEMBL4619763 (J Nat Prod, 2020).

Structures are written as SMILES. Activity calls are given as the source filed them. The rule behind the calls is not given here.

Series [1] relates to Rattus norvegicus. The series is described as follows: Diuretic activity in normotensive Wistar rat assessed as urine pH at 0.1 mg/kg, po administered via gavage after 8 hrs in presence of hydrochlorothiazide (reference value: 6.14 to 6.21). Type of series: functional.
Series [2] deals with Rattus norvegicus. The series is described as follows: Diuretic activity in normotensive Wistar rat assessed as urine pH at 0.1 mg/kg, po administered via gavage after 8 hrs in presence of indomethacin (reference value: 6.14 to 6.21). In kind it is functional.
Series [3] relates to Rattus norvegicus. Put plainly: Diuretic activity in normotensive Wistar rat assessed as effect on urinary potassium excretion at 0.1 mg/kg, po administered via gavage for 7 days. Type of series: ADME, organism-based. As to conditions: in vivo, 168 h.
The nature of series [4]: Toxicity in normotensive Wistar rat assessed as changes in plasma calcium level at 0.1 mg/kg, po administered for 7 days. Type of series: organism-based. As to conditions: in vivo, 168 h.
The nature of series [5]: Toxicity in spontaneous hypertensive Wistar rat assessed as changes in plasma sodium level at 0.1 mg/kg, po administered for 7 days. In kind it is organism-based. As to conditions: in vivo, 168 h.
The test system of series [6] is Rattus norvegicus. Put plainly: Cardioprotective activity in spontaneous hypertensive Wistar rat assessed as effect on heart weight at 0.1 mg/kg, po administered for 7 days. In kind it is functional, organism-based.
Series [7] can be described thus: Toxicity in spontaneous hypertensive Wistar rat assessed as changes in plasma uric acid level at 0.1 mg/kg, po administered for 7 days. Type of series: organism-based. Particulars: in vivo, 168 h.
The test system of series [8] is Rattus norvegicus. Put plainly: Diuretic activity in normotensive Wistar rat assessed as urinary potassium excretion at 0.1 mg/kg, po administered via gavage after 8 hrs in presence of furosemide (reference value: 22.39 to 24.21 mmol/L). Type of series: ADME, organism-based. As to conditions: in vivo.
Series [9] concerns Rattus norvegicus. The series is described as follows: Diuretic activity in normotensive Wistar rat assessed as urinary sodium excretion at 0.01 mg/kg, ip after 8 hrs (reference value: 81.56 +/- 13.10 mmol/L). In kind it is functional.

For `C[C@@H]1O[C@@H](Oc2c(-c3ccc(O)cc3)oc3cc(O)cc(O)c3c2=O)[C@H](O)[C@H](O)[C@H]1O` [AFZELIN], the pH in [1] is given as 6.42; in [2], 5.94. The Activity result is given as “Non-Toxic” in series [3]; “Non-Toxic” in [4]; “Non-Toxic” in series [5]; “Non-Toxic” in series [7]; 20.41 mmol/L in series [8]; 51.84 mmol/L in series [9]. For the same compound, the outcome in series [6] was inactive.
